In patent publication US20260176300A1, “N-ARYLPYRAZOLE NOD2 AGONISTS AS PROMOTERS OF IMMUNE CHECKPOINT INHIBITOR THERAPY” (THE SCRIPPS RESEARCH INSTITUTE, priority 2022, published 2026):
Each block holds one compound with its values, some of them ahead of it.

Target: T1, NOD2 (Homo sapiens, UniProt Q9HC29)
T1 construct: host or cells: HEK-293T-derived HEK-Blue NF-kB/SEAP reporter cells
Test: NOD2-HEK-Blue NF-κB reporter cell activation assay (NOD2-expressing HEK-293T cells)
Type: cell-based
Conditions: for EC50: calculated, three-parameter dose-response nonlinear regression, read-out: pEC50 (μM), dose-dependent activation of NOD2-expressing HEK-293T cells (converted); for Activation of NOD2-expressing HEK-293T cells, colorimetric assay: 10 µM, 16 h (FIG. 1E); for NOD2 activation, result in words in the pEC50 column: Table 1; for Potency in structure-activity comparison: relative to TT007, FIG. 2B, 2D, 2F, 6E; for Activity after N-methylation on Val: TT018 vs. TT019, TT010 vs. TT020, TT011 vs. TT021, FIG. 2C
Source text: FIG. 1(A-F). Virtual screening for small molecule NOD2 agonists. A, Docked structure of muramyl dipeptide (MDP) in the leucine-rich repeat (LRR) domain of rabbit NOD2 (pdb 5IRM). […] B, Results of virtual docking approach with reported chemical structures related to MDP. C, Workflow of virtual screening in which a library was generated using carboxylic acids appended to the L-Val-D-Glu dipeptide and then docked to the NOD2 LRR domain. D, Desmuramyl MDP (dMDP) structures resulting from the virtual screen that were synthesized for further screening. Chemicals shown as a pure enantiomer were synthesized as a racemic mixture. E, Activation of NOD2-expressing HEK-293T cells treated for 16 h with 10 µM of the indicated compound using a colorimetric assay. F, Dose-dependent activation of NOD2-expressing HEK-293T cells using the indicated compounds. Numbers in parentheses represent calculated negative log of the half maximal effective concentration (pEC50) values. NOD activation assays were analyzed using a one-way ANOVA with Dunnett's multiple comparisons test compared to the DMSO control. pEC50 values were derived by a three-parameter dose-response nonlinear regression. ****P<0.0001.
FIG. 2(A-G). Structure-activity relationship studies of 3,5-dimethyl-N-arylpyrazole NOD2 agonists. A, Structures of 3,5-dimethyl-N-arylpyrazole structures synthesized for SAR studies. B-F, Dose-dependent activation of NOD2-expressing HEK-293T cells using the indicated compounds grouped by similar structural perturbations. Numbers in parentheses represent calculated pEC50 values. G, Graph of calculated pEC50 values vs. calculated partition coefficient (clogP). Dotted lines show equivalent lipophilic ligand efficiency (LLE) values. Red arrow indicates optimization of the TT007 scaffold to TT030. pEC50 values were derived by a three-parameter dose-response nonlinear regression.
Cell culture. The following cell lines were used and sourced as follows: HEK-Blue NOD2 (InvivoGen, hkb-hnod2), HEK-Blue NOD1 (InvivoGen, hkb-nod1), HEK-Blue Null2 (hkb-null2), and B16-F10 (ATCC CRL-6475). All cell lines were cultured at 37° C. in 5% CO2 in DMEM (ThermoFisher, 11995065) supplemented with 10% fetal bovine serum (FBS), 100 U mL-1 penicillin, and 100 μg mL-1 streptomycin. Cells were maintained at no greater than 70% confluency and subcultured using TrypLE Express. Cell lines were routinely cultured without antibiotics to ensure no bacterial infection and tested for mycoplasma using a Universal Mycoplasma Detection Kit (ATCC 30-1012K). Primary human peripheral mononuclear blood cells (PBMCs) were cultured at 37° C. in 5% CO2 in RPMI 1640 (ThermoFisher, 61870143) supplemented with 10% FBS. All experimental work using human samples was reviewed and approved by the Scripps Research Institutional Review Board (Protocol IRB-21-7816NOD2).
Reporter cell line activation assay. Approximately 24 h before the assay, culture medium for each of the HEK-Blue reporter cell lines was replaced with a 1:1 mixture of DMEM supplemented with 10% FBS and OptiMEM. On the day of the assay, single cell suspensions (150,000 cells/mL) were produced in HEK-Blue detection medium (InvivoGen, hb-det2). Cells were aliquoted at 200 μL per well of a 96-well plate containing 0.2 μL of a 1000× stock of each test compound in DMSO. Cells were then incubated at 37° C. in 5% CO2 for 8-10 h. To measure activity, wells were then gently pipetted up and down to mix the conditioned medium, and absorbance from the colorimetric product of the secreted alkaline phosphatase was measured at 630 nm. In some assays, cells were stimulated for 16 h with compounds as described above in complete DMEM. Then, 20 μL of the conditioned medium was mixed with 180 μL QUANTI-Blue solution (InvivoGen, rep-qbs) and incubated for 2-4 h at 37° C. Activity was then measured by absorbance as described above.

T1 sequence (Q9HC29 whole entry): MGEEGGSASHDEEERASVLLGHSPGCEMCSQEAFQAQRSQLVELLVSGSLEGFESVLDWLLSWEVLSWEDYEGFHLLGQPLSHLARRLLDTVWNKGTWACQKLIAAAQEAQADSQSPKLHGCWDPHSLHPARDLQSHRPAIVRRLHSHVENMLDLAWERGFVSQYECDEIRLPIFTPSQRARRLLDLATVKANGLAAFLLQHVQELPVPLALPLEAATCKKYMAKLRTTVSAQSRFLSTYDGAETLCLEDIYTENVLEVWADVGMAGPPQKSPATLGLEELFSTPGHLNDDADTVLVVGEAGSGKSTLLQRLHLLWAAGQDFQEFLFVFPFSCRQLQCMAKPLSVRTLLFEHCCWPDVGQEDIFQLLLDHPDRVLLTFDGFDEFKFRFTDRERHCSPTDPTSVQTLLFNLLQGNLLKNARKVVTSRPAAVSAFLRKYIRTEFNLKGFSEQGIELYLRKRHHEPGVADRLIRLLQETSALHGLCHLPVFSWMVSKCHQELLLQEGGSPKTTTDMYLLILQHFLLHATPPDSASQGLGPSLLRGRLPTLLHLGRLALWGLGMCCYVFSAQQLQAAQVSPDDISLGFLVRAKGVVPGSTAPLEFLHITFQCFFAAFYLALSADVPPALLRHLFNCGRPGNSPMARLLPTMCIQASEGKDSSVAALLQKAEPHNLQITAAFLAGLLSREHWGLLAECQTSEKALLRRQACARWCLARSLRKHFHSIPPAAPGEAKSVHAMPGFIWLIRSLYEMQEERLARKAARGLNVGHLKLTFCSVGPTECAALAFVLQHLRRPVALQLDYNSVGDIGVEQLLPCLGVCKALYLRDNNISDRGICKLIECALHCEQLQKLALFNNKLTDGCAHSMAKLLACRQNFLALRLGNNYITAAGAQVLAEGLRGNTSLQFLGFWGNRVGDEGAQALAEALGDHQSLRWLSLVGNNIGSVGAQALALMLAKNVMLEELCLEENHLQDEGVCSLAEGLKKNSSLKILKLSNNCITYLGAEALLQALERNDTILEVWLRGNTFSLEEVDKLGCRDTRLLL

SMILES: CCOC(=O)CC[C@@H](NC(=O)[C@@H](NC(=O)c1c(C)nn(-c2ccc(NC(=O)OC(C)(C)C)nc2)c1C)C(C)C)C(=O)OCC [TT027, Diethyl (1-(6-((tert-butoxycarbonyl)amino)pyridin-3-yl)-3,5-dimethyl-1H-pyrazole-4-carbonyl)-L-valyl-D-glutamate]
EC50: 0.158 µM

SMILES: CCOC(=O)CC[C@@H](NC(=O)[C@@H](NC(=O)CCCc1ccccc1)C(C)C)C(=O)OCC [TT001, Diethyl (4-phenylbutanoyl)-L-valyl-D-glutamate]
NOD2 activation, result in words in the pEC50 column: Active

SMILES: CCOC(=O)CC[C@@H](NC(=O)[C@@H](NC(=O)c1cn(-c2ccc(F)cc2)nc1-c1cccc(C)c1)C(C)C)C(=O)OCC [TT009, Diethyl (1-(4-fluorophenyl)-3-(m-tolyl)-1H-pyrazole-4-carbonyl)-L-valyl-D-glutamate]
Activation of NOD2-expressing HEK-293T cells, colorimetric assay: inactive
Potency in structure-activity comparison: did not compensate the lack of the other substituent

SMILES: CCOC(=O)CC[C@@H](NC(=O)[C@H](C(C)C)N(C)C(=O)c1c(C)nn(-c2ccccc2)c1C)C(=O)OCC [TT019, Diethyl N-(3,5-dimethyl-1-phenyl-1H-pyrazole-4-carbonyl)-N-methyl-L-valyl-D-glutamate]
Activity after N-methylation on Val: abolished the activity

SMILES: CCOC(=O)CC[C@@H](NC(=O)[C@@H](NC(=O)c1cnn(-c2ccc(F)cc2)c1C)C(C)C)C(=O)OCC [TT010, Diethyl (1-(4-fluorophenyl)-5-methyl-1H-pyrazole-4-carbonyl)-L-valyl-D-glutamate]
EC50: 39.8 µM
Potency in structure-activity comparison: reduced potency by up to two orders of magnitude

SMILES: CCOC(=O)CC[C@@H](NC(=O)[C@@H](NC(=O)c1c(C)nn(-c2cccnc2)c1C)C(C)C)C(=O)OCC [TT033, Diethyl (3,5-dimethyl-1-(pyridin-3-yl)-1H-pyrazole-4-carbonyl)-L-valyl-D-glutamate]
EC50: 2.51 µM

SMILES: CCOC(=O)CC[C@@H](NC(=O)[C@@H](NC(=O)c1cnn(-c2ccc(F)cc2)c1C(C)C)C(C)C)C(=O)OCC [TT012, Diethyl (1-(4-fluorophenyl)-5-isopropyl-1H-pyrazole-4-carbonyl)-L-valyl-D-glutamate]
EC50: 31.6 µM
Potency in structure-activity comparison: did not compensate the lack of the other substituent

SMILES: CCOC(=O)CC[C@@H](NC(=O)[C@@H](NC(=O)c1c(C)nn(-c2ccc(Cl)cc2)c1C)C(C)C)C(=O)OCC [TT024, Diethyl (1-(4-chlorophenyl)-3,5-dimethyl-1H-pyrazole-4-carbonyl)-L-valyl-D-glutamate]
EC50: 1 µM
Potency in structure-activity comparison: did not yield compounds with appreciable differences in potency

SMILES: CCOC(=O)CC[C@@H](NC(=O)[C@@H](NC(=O)[C@@H]1C[C@H]1c1ccc(Cl)c(Cl)c1)C(C)C)C(=O)OCC (racemic) [TT004, Diethyl (rac-(1R,2R)-2-(3,4-dichlorophenyl)cyclopropane-1-carbonyl)-L-valyl-D-glutamate]
NOD2 activation, result in words in the pEC50 column: Active

SMILES: CCOC(=O)CC[C@@H](NC(=O)[C@@H](NC(=O)c1c(C)nn(-c2cncnc2)c1C)C(C)C)C(=O)OCC [TT034, Diethyl (3,5-dimethyl-1-(pyrimidin-5-yl)-1H-pyrazole-4-carbonyl)-L-valyl-D-glutamate]
EC50: 2.51 µM

Further lines, with some results ahead:

EC50: 1.58 µM
SMILES: CCOC(=O)CC[C@@H](NC(=O)[C@@H](NC(=O)c1c(C)nn(-c2ccccc2OC)c1C)C(C)C)C(=O)OCC [TT035, Diethyl (1-(2-methoxyphenyl)-3,5-dimethyl-1H-pyrazole-4-carbonyl)-L-valyl-D-glutamate]

EC50: 0.501 µM
SMILES: CCOC(=O)CC[C@@H](NC(=O)[C@@H](NC(=O)c1c(C)nn(-c2ccc(N)nc2)c1C)C(C)C)C(=O)OCC [TT026, Diethyl (1-(6-aminopyridin-3-yl)-3,5-dimethyl-1H-pyrazole-4-carbonyl)-L-valyl-D-glutamate]

EC50: 1.58 µM
SMILES: C#CCCC1(CC(=O)N[C@H](C(=O)N[C@H](CCC(=O)OCC)C(=O)OCC)C(C)C)N=N1 [x-alk-VE]

Activation of NOD2-expressing HEK-293T cells, colorimetric assay: inactive
SMILES: CCOC(=O)CC[C@@H](NC(=O)[C@@H](NC(=O)c1cn(-c2ccccc2)nc1-c1cccc(C)c1)C(C)C)C(=O)OCC [TT008, Diethyl (1-phenyl-3-(m-tolyl)-1H-pyrazole-4-carbonyl)-L-valyl-D-glutamate]

EC50: 79.4 µM
SMILES: CCOC(=O)CC[C@@H](NC(=O)[C@@H](NC(=O)c1cnn(-c2ccncc2)c1C)C(C)C)C(=O)OCC [TT016, Diethyl (5-methyl-1-(pyridin-4-yl)-1H-pyrazole-4-carbonyl)-L-valyl-D-glutamate]

EC50: 2.51 µM
SMILES: CCOC(=O)CC[C@@H](NC(=O)[C@@H](NC(=O)c1c(C)nn(-c2cccc(OC)c2)c1C)C(C)C)C(=O)OCC [TT036, Diethyl (1-(3-methoxyphenyl)-3,5-dimethyl-1H-pyrazole-4-carbonyl)-L-valyl-D-glutamate]

EC50: 1.26 µM
SMILES: CCOC(=O)CC[C@@H](NC(=O)[C@@H](NC(=O)CNC(=O)/C=C/c1ccccc1)C(C)C)C(=O)OCC [CinGVE, Diethyl cinnamoylglycyl-L-valyl-D-glutamate, reference compound]

EC50: 0.158 µM
SMILES: CCOC(=O)CC[C@@H](NC(=O)[C@@H](NC(=O)c1c(C)nn(-c2ccc3cc[nH]c3c2)c1C)C(C)C)C(=O)OCC [TT025, Diethyl (1-(1H-indol-6-yl)-3,5-dimethyl-1H-pyrazole-4-carbonyl)-L-valyl-D-glutamate]

EC50: 10 µM
SMILES: CCOC(=O)CC[C@@H](NC(=O)[C@@H](NC(=O)c1cn(-c2ccc(C)cc2)nc1C)C(C)C)C(=O)OCC [TT013, Diethyl (3-methyl-1-(p-tolyl)-1H-pyrazole-4-carbonyl)-L-valyl-D-glutamate]

Activity after N-methylation on Val: abolished the activity
SMILES: CCOC(=O)CC[C@@H](NC(=O)[C@H](C(C)C)N(C)C(=O)c1cnn(-c2ccc(F)cc2)c1C)C(=O)OCC [TT020, Diethyl N-(1-(4-fluorophenyl)-5-methyl-1H-pyrazole-4-carbonyl)-N-methyl-L-valyl-D-glutamate]

EC50: 0.0501 µM
SMILES: CCOC(=O)CC[C@@H](NC(=O)[C@@H](NC(=O)C1(Cc2ccc(F)cc2)CCCC1)C(C)C)C(=O)OCC [TT003, Diethyl (1-(4-fluorobenzyl)cyclopentane-1-carbonyl)-L-valyl-D-glutamate]

EC50: 1.58 µM
SMILES: CCOC(=O)CC[C@@H](NC(=O)[C@@H](NC(=O)c1c(C)nn(-c2ccccn2)c1C)C(C)C)C(=O)OCC [TT032, Diethyl (3,5-dimethyl-1-(pyridin-2-yl)-1H-pyrazole-4-carbonyl)-L-valyl-D-glutamate]

EC50: 0.398 µM
SMILES: CCOC(=O)CC[C@@H](NC(=O)[C@@H](NC(=O)c1c(C)nn(-c2cnc3[nH]ccc3c2)c1C)C(C)C)C(=O)OCC [TT029, Diethyl (3,5-dimethyl-1-(1H-pyrrolo[2,3-b]pyridin-5-yl)-1H-pyrazole-4-carbonyl)-L-valyl-D-glutamate]

EC50: 2.51 µM
SMILES: CCOC(=O)CC[C@@H](NC(=O)[C@@H](NC(=O)c1c(C)nn(-c2ccccc2)c1C)C(C)C)C(=O)OCC [TT018, Diethyl (3,5-dimethyl-1-phenyl-1H-pyrazole-4-carbonyl)-L-valyl-D-glutamate]
Potency in structure-activity comparison: did not yield compounds with appreciable differences in potency
